In patent US20230348487A1, “2-AMINOPYRIMIDINE COMPOUND AND PHARMACEUTICAL COMPOSITION THEREOF AND APPLICATION THEREOF” (GUANGZHOU SALUSTIER BIOSCIENCES CO., LTD., priority 2021, published 2023):
Where “and” joins values, the source holds several entries; their conditions need not be identical. Equal entries are not always repeated. Where two headings read alike, the source gives them in different places.

How the values were obtained:
[1] = system: human T lymphoblastic lymphoma cell line Jurkat; test: CCK-8 in vitro proliferation inhibition; assay type: cell-based; details: 72 hours, read-out: Inhibitory activity (IC50) on cell proliferation, JURKAT
Experimental: (§1) Cell lines: human chronic myeloid leukemia cell line K562, human acute myeloid leukemia cell line U937, human T lymphocyte leukemia cell line HuT78, and human T lymphoblastic lymphoma cell line Jurkat. Cells were purchased from the Chinese Academy of Sciences Stem Cell Bank or ATCC.
(§2) […] were cultured overnight and suspended cells were directly stimulated with drugs. […] Two repeats were set for each concentration, with a final volume of 200 μL. […] The absorbance values at 450 nm and 650 nm were measured using a microplate reader, and the increment Z (A450-A650) was derived. The inhibitory rate of drugs on cell growth was calculated by GraphPad Prism 8.0.0 through the following formula:
(§3) Inhibition rate (%)(ODcontrol−ODdosing)/ODcontrol×100%
(§4) The half inhibitory concentration (IC50) was calculated. Every experiment was repeated at least three times.

[2] = system: human acute myeloid leukemia cell line U937; test: CCK-8 in vitro proliferation inhibition; assay type: cell-based; details: read-out: Inhibitory activity (IC50) on cell proliferation, U937
Experimental: as §1, §2, §3, §4

[3] = system: human T lymphocyte leukemia cell line HuT78; test: CCK-8 in vitro proliferation inhibition; assay type: cell-based; details: read-out: Inhibitory activity (IC50) on cell proliferation, HUT78
Experimental: as §1, §2, §3, §4

[4] = system: human chronic myeloid leukemia cell line K562; test: CCK-8 in vitro proliferation inhibition; assay type: cell-based; details: read-out: Inhibitory activity (IC50) on cell proliferation, K562
Experimental: as §1, §2, §3, §4

JAK3 = JAK3 (Homo sapiens (Human), UniProt P52333); test: Z′-Lyte kinase inhibitory activity test; assay type: biochemical; details: for JAK3 kinase inhibitory activity and selectivity (in words): summary of Table 3, activity maintained at ATP 1 mM
Experimental: (§5) Test method: Firstly, test compounds were prepared into 10 mM stock solution with DMSO, and continuously diluted into 10 concentrations at a 3-fold gradient for later use. 5X reaction buffer was diluted with deionized water into 1×reaction buffer (50 mM HEPES pH 7.5, 0.01% Brij-35, 10 mM MgCl2, 1 mM EGTA), which was used to prepare a mixture of kinase and peptide substrate, as well as a phosphorylated peptide substrate solution. The kinase concentration was determined based on enzyme titration, and the final concentration of peptide substrate and phosphorylated peptide substrate was 2 μM. 5 μL of mixture substrate of kinase and peptide substrate was added to each well on the 384 well plate. Then 5 nL of the test compound (starting with a final concentration of 10 μM) was added with an Echo520 Sampler. […] An additional 100% phosphorylation well (5 μL phosphorylated peptide substrate solution), a 0% phosphorylated well (5 μL of a mixture of kinase and peptide substrate, without test compounds and ATP), and a 0% inhibitory well (5 μL of a mixture of kinase and peptide substrate and appropriate concentration of ATP) were set as control. Two repeats were set for each concentration. The above reaction system was incubated at 30° C. for 1.5 hours. […] 2.5 μL of the diluted mixture was added to each well and the system was incubated at 30° C. for another 1 hour. […] The substrate phosphorylation rate was obtained by calculating the ratio, and the activity of the kinase and the effect of the inhibitor on the kinase was further calculated. Every experiment was repeated at least three times.

JAK2 = JAK2 (Homo sapiens (Human), UniProt O60674); test: Z′-Lyte kinase inhibitory activity test; assay type: biochemical
Experimental: as §5

TYK2 = TYK2 (Homo sapiens (Human), UniProt P29597); test: Z′-Lyte kinase inhibitory activity test; assay type: biochemical; details: ATP concentration Km
Experimental: as §5

JAK1 = JAK1 (Homo sapiens (Human), UniProt P23458); test: Z′-Lyte kinase inhibitory activity test; assay type: biochemical; details: ATP concentration Km
Experimental: as §5

[5] = Rat liver microsomes stability test; assay type: in vitro ADME; details: for Remaining percentage: rat liver microsomes, average value
Experimental: Firstly, preheated 0.1 M potassium phosphate buffer with 5 mM MgCl2 (i.e. K/Mg buffer) at pH 7.4±0.1. Prepared the spiked solution for the tested compound and reference compound (500 μM spiked solution: added 5 μL of 10 mM stock solution into 95 μL of acetonitrile; 1.5 μM microsomal spiked solution (0.75 mg/mL): added 1.5 μL of 500 μM spiked solution and 18.75 μL of 20 mg/mL liver microsomes into 479.75 μL of K/Mg buffer). Then NADPH was dissolved in buffer K to prepare a 6 mM, 5 mg/mL NADPH stock solution. At different time points (0-, 5-, 15-, 30-, 45 minutes), 30 μL of 1.5 μM spiked solution containing 0.75 mg/mL of microsome solution was distributed onto the designated detection plate. At 0 min, 150 μL of acetonitrile containing internal standard (IS) was added to the 0 min plate well, followed by 15 μL of NADPH stock solution (6 mM). Then, all plates were pre-incubated at 37° C. for 5 minutes, added 15 μL of NADPH stock solution (6 mM), the reaction was initiated and timed. At 5 minutes, 15 minutes, 30 minutes, and 45 minutes, added 150 μL of acetonitrile solution containing IS to the corresponding wells to stop the reaction. After quenching, the plate was shaken for 10 minutes (600 rpm/min), followed by centrifugation at 6000 rpm/min for 15 minutes. 80 μL of supernatant of each well were transferred into a 96-well sample plate containing 140 μL of ultrapure water to perform LC/MS analysis. The analysis of biological samples and all samples were completed by the analysis laboratory of Medicipia Pharmaceutical Technology (Shanghai) Co., Ltd.

[6] = system: other subtypes (JAK family); details: 1 mM ATP concentration; read-out: IC50 of the kinase, other subtypes; cited from earlier work

Sequence of JAK2 (O60674 whole entry): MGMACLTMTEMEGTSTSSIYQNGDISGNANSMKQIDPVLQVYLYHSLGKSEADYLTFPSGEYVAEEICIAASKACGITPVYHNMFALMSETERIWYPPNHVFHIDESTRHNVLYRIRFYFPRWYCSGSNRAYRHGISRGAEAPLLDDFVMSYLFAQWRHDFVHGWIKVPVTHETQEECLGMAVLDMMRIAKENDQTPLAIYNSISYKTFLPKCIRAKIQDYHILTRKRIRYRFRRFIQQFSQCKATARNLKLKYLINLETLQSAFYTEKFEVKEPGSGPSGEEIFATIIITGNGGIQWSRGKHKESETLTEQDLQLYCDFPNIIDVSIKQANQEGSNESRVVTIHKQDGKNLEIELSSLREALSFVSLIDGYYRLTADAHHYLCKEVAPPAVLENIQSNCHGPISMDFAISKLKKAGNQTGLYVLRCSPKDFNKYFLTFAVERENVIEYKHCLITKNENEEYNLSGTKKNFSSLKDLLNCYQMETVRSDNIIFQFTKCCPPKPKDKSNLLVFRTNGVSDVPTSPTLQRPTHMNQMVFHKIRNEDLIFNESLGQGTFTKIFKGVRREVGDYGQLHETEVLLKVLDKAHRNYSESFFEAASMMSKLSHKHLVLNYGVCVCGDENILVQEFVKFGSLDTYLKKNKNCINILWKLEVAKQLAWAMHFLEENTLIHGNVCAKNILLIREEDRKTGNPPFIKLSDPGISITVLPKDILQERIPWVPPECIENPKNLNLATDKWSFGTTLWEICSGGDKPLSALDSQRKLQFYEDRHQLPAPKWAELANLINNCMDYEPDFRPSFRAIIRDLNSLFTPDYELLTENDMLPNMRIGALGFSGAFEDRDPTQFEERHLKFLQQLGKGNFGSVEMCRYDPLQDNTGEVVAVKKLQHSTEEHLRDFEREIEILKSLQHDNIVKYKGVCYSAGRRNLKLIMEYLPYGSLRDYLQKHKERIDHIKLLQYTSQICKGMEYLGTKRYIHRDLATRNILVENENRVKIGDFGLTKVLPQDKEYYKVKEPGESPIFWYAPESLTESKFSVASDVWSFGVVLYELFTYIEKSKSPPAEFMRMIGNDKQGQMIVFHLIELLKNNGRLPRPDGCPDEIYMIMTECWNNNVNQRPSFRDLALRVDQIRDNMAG
Sequence of TYK2 (P29597 whole entry): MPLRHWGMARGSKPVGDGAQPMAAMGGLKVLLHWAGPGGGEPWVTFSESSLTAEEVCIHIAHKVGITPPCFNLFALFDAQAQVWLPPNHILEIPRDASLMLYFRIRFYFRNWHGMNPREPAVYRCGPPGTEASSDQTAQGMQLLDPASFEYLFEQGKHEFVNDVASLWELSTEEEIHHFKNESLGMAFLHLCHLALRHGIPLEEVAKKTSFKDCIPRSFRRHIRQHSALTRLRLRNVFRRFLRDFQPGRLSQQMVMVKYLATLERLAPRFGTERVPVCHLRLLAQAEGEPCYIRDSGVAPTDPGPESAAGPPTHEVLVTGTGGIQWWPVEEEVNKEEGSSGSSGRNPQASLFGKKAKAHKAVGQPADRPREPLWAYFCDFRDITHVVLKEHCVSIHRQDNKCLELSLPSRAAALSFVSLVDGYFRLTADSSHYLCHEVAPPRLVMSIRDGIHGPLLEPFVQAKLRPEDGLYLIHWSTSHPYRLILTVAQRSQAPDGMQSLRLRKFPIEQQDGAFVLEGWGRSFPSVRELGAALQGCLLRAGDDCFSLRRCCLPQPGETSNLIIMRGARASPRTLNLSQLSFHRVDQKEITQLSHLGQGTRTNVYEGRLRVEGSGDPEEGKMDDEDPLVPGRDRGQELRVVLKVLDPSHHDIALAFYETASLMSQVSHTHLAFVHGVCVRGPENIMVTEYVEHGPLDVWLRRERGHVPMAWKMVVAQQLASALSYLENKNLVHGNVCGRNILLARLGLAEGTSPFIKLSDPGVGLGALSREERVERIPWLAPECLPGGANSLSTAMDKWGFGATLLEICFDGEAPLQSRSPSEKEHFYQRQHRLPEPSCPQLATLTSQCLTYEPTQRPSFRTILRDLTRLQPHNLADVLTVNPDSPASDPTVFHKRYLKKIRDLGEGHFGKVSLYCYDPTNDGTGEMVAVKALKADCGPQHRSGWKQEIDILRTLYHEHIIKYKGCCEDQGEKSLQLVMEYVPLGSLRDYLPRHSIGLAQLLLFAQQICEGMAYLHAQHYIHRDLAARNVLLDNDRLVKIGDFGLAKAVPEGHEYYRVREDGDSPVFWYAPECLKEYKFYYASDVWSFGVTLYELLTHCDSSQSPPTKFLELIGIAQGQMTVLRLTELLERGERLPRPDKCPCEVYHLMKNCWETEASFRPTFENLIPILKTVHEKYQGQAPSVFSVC
Sequence of JAK1 (P23458 whole entry): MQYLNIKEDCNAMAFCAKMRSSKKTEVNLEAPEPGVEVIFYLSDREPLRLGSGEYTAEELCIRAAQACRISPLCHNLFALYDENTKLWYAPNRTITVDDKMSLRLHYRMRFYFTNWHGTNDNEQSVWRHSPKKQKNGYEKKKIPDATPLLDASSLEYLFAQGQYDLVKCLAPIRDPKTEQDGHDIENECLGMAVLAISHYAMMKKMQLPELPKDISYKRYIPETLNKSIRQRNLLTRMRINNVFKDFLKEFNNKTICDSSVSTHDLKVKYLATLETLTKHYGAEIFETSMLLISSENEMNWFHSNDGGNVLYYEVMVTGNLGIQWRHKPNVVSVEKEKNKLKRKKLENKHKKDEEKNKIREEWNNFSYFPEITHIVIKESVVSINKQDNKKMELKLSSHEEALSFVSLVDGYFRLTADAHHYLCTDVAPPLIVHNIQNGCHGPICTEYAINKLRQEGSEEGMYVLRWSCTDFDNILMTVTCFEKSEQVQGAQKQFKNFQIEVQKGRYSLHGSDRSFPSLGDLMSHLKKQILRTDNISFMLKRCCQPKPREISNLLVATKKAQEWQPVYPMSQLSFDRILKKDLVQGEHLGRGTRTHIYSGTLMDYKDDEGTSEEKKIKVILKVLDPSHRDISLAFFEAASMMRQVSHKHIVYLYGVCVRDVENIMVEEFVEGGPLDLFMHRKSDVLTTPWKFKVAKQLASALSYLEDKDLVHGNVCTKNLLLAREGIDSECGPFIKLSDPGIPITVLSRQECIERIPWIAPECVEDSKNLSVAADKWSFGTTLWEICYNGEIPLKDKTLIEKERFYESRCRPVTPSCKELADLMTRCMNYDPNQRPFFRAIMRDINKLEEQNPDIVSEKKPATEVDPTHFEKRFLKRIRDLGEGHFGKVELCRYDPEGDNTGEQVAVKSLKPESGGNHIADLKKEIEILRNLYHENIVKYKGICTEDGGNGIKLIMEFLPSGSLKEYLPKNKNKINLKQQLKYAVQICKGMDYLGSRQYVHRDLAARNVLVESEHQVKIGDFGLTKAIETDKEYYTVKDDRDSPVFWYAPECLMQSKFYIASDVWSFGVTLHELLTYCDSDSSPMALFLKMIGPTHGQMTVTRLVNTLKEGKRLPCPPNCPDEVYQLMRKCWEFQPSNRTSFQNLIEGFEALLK
Sequence of JAK3 (P52333 whole entry): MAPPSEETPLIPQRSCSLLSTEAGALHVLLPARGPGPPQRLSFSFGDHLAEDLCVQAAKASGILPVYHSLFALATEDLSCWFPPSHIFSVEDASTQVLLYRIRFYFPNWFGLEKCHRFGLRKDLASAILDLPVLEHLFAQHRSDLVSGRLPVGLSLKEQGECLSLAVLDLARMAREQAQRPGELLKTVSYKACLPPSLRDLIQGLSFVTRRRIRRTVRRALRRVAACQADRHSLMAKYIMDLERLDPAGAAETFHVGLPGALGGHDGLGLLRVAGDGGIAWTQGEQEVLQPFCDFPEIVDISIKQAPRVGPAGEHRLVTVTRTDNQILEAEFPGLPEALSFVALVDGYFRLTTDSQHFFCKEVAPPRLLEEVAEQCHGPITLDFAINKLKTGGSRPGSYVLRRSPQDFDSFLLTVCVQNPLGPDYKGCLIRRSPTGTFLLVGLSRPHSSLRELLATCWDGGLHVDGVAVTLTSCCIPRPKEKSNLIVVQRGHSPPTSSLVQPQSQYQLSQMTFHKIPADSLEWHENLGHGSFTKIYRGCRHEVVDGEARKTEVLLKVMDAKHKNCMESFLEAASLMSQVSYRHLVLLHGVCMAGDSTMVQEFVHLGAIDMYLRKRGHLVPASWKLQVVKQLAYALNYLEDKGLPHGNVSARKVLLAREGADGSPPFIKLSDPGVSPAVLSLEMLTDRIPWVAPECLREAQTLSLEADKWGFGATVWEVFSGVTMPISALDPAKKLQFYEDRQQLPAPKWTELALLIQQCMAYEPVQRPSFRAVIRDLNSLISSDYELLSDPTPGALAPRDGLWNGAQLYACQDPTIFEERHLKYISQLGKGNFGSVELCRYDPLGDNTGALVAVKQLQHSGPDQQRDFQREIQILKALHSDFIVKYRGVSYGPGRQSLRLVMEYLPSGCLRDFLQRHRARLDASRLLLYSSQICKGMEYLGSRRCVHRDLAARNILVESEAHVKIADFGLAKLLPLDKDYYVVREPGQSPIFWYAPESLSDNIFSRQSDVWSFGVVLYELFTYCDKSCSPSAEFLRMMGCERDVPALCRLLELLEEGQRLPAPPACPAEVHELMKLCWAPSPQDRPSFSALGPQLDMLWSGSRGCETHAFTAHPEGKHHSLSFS

SMILES | IC50 (TYK2) | IC50 (JAK1) | IC50 ([1]; Homo sapiens, Jurkat) | IC50 ([2]; Homo sapiens, U-937, 72 hours) | IC50 ([3]; Homo sapiens, HuT78, 72 hours) | IC50 ([4]; Homo sapiens, K562, 72 hours) | IC50 (JAK3; ATP concentration 1 mM) | IC50 (JAK3; ATP concentration Km) | IC50 (JAK2; ATP concentration Km) | IC50 [1] | IC50 ([2]; 72 hours) | IC50 ([3]; 72 hours) | IC50 ([4]; 72 hours) | JAK3 kinase inhibitory activity and selectivity (in words) (JAK3) | further results
C=CC(=O)Nc1cc(Nc2ncc(Cl)c(O[C@@H]3CO[C@H]4[C@@H]3OC[C@H]4O)n2)ccc1F [LS 5-62] | 860 nM | 1060 nM |  |  |  |  |  |  |  | 2460 nM | 111 nM | 423 nM | 637 nM | strong and selective JAK3 kinase inhibitory activity | IC50 (JAK3): 2.2 nM and 2.26 nM; IC50 (JAK2): 11000 nM
C=CC(=O)Nc1cccc(Nc2ncc(Cl)c(O[C@@H]3CO[C@H]4[C@@H]3OC[C@H]4O)n2)c1 [LS 5-77] | 93.9 nM | 556 nM |  |  |  |  |  |  |  | 1660 nM | 106 nM | 447 nM | 103 nM | strong and selective JAK3 kinase inhibitory activity | IC50 (JAK3): 1.25 nM and 2.39 nM; IC50 (JAK2): 1400 nM
O=C(c1ccc(F)cc1)C1CCN(CCn2c(=O)[nH]c3ccccc3c2=O)CC1 [ketanserin, reference compound] |  |  |  |  |  |  |  |  |  |  |  |  |  |  | Remaining percentage ([5]; 0 min): 100.00%; Remaining percentage ([5]; 5 min): 75.87%; Remaining percentage ([5]; 15 min): 42.60%; Remaining percentage ([5]; 30 min): 29.98%; Remaining percentage ([5]; 45 min): 17.88%; CLint scaled at 1 µM ([5]; rat, liver microsomes, pH 7.4, rat liver microsomes, read-out: Clint): 133 mL/min/kg; half-life at 1 µM ([5]; rat, liver microsomes, pH 7.4, rat liver microsomes, read-out: T1/2): 18.7 min
C/C=C/C(=O)Nc1cc(Nc2ncc(Cl)c(O[C@@H]3CO[C@H]4[C@@H]3OC[C@H]4O)n2)ccc1N1CCC(N2CCN(C)CC2)CC1 [LS 5-72] | 430 nM | 2670 nM | 2780 nM | 524 nM | 928 nM | 2760 nM | 4380 nM | 90.5 nM | 1540 nM |  |  |  |  |  | 
C=C(C)C(=O)Nc1cc(Nc2ncc(Cl)c(O[C@@H]3CO[C@H]4[C@@H]3OC[C@H]4O)n2)ccc1N1CCC(N2CCN(C)CC2)CC1 [LS 5-73] | 312 nM | 1730 nM | 2240 nM | 246 nM | 476 nM | 117 nM | 4940 nM | 72.4 nM | 1630 nM |  |  |  |  |  | 
C=CC(=O)Nc1cc(Nc2ncc(Cl)c(O[C@@H]3CO[C@H]4[C@@H]3OC[C@H]4O)n2)ccc1N1CCC(N2CCN(C)CC2)CC1 [LS 5-12, N-(5-((5-chloro-4-(((3R,3aR,6R, 6aR)-6-hydroxyhexahydrofurano[3,2-b]furan-3-yl)oxygen)pyrimidin-2-yl)amino)-2-(4-(4-methylpiperazin-1-yl)piperidin-1-yl)phenyl) acrylamide] | 369 nM | 1540 nM |  |  |  |  |  |  |  | 434 nM | 35.9 nM | 31.7 nM | 290 nM | strong and selective JAK3 kinase inhibitory activity | IC50 (JAK2): 1030 nM
C=CC(=O)N1C[C@H](Nc2ncnc3[nH]ccc23)CC[C@@H]1C [PF-06651600, reference compound] |  |  |  |  |  |  |  |  |  | > 30000 nM | 19.5 nM | > 30000 nM | > 30000 nM |  | IC50 [6]: > 10000 nM

Further lines, with some results ahead:

IC50 (TYK2) | IC50 (JAK1) | IC50 ([1]; Homo sapiens, Jurkat) | IC50 ([2]; Homo sapiens, U-937, 72 hours) | IC50 ([3]; Homo sapiens, HuT78, 72 hours) | IC50 ([4]; Homo sapiens, K562, 72 hours) | IC50 (JAK3; ATP concentration 1 mM) | IC50 (JAK3; ATP concentration Km) | IC50 (JAK2; ATP concentration Km) | SMILES | IC50 [1] | IC50 ([2]; 72 hours) | IC50 ([3]; 72 hours) | IC50 ([4]; 72 hours) | JAK3 kinase inhibitory activity and selectivity (in words) (JAK3) | further results
278 nM | 4880 nM | 3050 nM | 227 nM | 1060 nM | 5980 nM | 4190 nM | 57 nM | 2360 nM | CN(C)C/C=C/C(=O)Nc1cc(Nc2ncc(Cl)c(O[C@@H]3CO[C@H]4[C@@H]3OC[C@H]4O)n2)ccc1N1CCC(N2CCN(C)CC2)CC1 [LS 5-81] |  |  |  |  |  | 
233 nM | 895 nM | 34.1 nM | 5.78 nM | 19.2 nM | 70.9 nM | 20.6 nM | 5.5 nM | 1060 nM | C=CC(=O)Nc1cc(Nc2ncc(Cl)c(O[C@@H]3CO[C@H]4[C@@H]3OC[C@H]4O)n2)ccc1N1CCC2(CCN(C)CC2)CC1 [LS 5-91] |  |  |  |  | strong and selective JAK3 kinase inhibitory activity | 
3120 nM | 4770 nM | 551 nM | 69.2 nM | 463 nM | 39.9 nM | 4.35 nM | 3.9 nM | 2080 nM | C=CC(=O)Nc1cc(Nc2ncc(Cl)cn2)ccc1N1CCC(N2CCN(C)CC2)CC1 [LS 5-126, N-(5-((5-chloropyrimidin-2-yl)amino)-2-(4-(4-methylpiperazin-1-yl)piperidin-1-yl)phenyl) acrylamide] |  |  |  |  |  | 
226 nM | 1120 nM | 3950 nM | 181 nM | 448 nM | 91.8 nM | 7.37 nM | 4.26 nM | 1520 nM | C=CC(=O)Nc1cc(Nc2ncc(Cl)c(O[C@@H]3CO[C@H]4[C@@H]3OC[C@H]4O)n2)ccc1N(C)CCO [LS 5-74] |  |  |  |  | strong and selective JAK3 kinase inhibitory activity | 
241 nM | 1040 nM | 290 nM | 21.1 nM | 92.4 nM | 866 nM | 2.68 nM | 2.5 nM | 437 nM | C=CC(=O)Nc1cc(Nc2ncc(Cl)c(O[C@@H]3CO[C@H]4[C@@H]3OC[C@H]4O)n2)ccc1N1CCC(N(C)C)CC1 [LS 5-102] |  |  |  |  | strong and selective JAK3 kinase inhibitory activity | 
